# Measured values as given in US20220281848A1, “PYRAZOLE-SUBSTITUTED PYRROLIDINONES AS HERBICIDES” (FMC Corporation, priority 2019, published 2022).
# Key:
# Assay type in all cases: in vivo
# Conditions in all cases: after 13 d
# [1] = test system: redroot pigweed (Amaranthus retroflexus, AMARE); experiment: Test A pre-emergence, redroot pigweed
# Protocol: (§1) Seeds of corn (Zea mays, ZEAMX), giant foxtail (Setaria faberi, SETFA), barnyardgrass (Echinochloa crus-galli, ECHCG), ivy-leaved morning glory (Ipomoea hederacea, IPOHE), redroot pigweed (Amaranthus retroflexus, AMARE) and velvetleaf (Abutilon theophrasti, ABUTH) were sown in standard soil in pots. After cultivation for one day under controlled conditions in a glasshouse (at 24/16° C., day/night; 14 h light; 65% humidity), the plants were sprayed with an aqueous spray solution derived from the formulation of the technical active ingredient in acetone/water (50:50) solution containing 0.5% Tween 20 (polyoxyethylene sorbitan monolaurate, CAS RN 9005-64-5) to give a final dose of 15.625, 62.5 or 250 g/ha of test compound.
# (§2) The test plants were then grown under controlled conditions in a glasshouse (at 24/16° C., day/night; 14 h light; 65% humidity) and watered twice daily. After 13 d the test was evaluated (100=total damage to plant; 0=no damage to plant).
# [2] = test system: ivy-leaved morning glory (Ipomoea hederacea, IPOHE); experiment: Test A pre-emergence, ivy-leaved morning glory
# Protocol: as §1, §2
# [3] = test system: ivy-leaved morning glory (Ipomoea hederacea, IPOHE); experiment: Test A post-emergence, ivy-leaved morning glory
# Protocol: as §1, with “IPOHE)),” for “IPOHE),”, “8 d” for “one day”
# (§3) The test plants were then grown on under controlled conditions in a glasshouse (at 24/16° C., day/night; 14 h light; 65% humidity) and watered twice daily. After 13 d the test was evaluated (100=total damage to plant; 0=no damage to plant).
# [4] = test system: redroot pigweed (Amaranthus retroflexus, AMARE); experiment: Test A post-emergence, redroot pigweed
# Protocol: as §1, with “IPOHE)),” for “IPOHE),”, “8 d” for “one day”
# as §3
# [5] = test system: velvetleaf (Abutilon theophrasti, ABUTH); experiment: Test A pre-emergence, velvetleaf
# Protocol: as §1, §2
# [6] = test system: giant foxtail (Setaria faberi, SETFA); experiment: Test A post-emergence, giant foxtail
# Protocol: as §1, with “IPOHE)),” for “IPOHE),”, “8 d” for “one day”
# as §3
# corn (Zea mays, ZEAMX) [7] = experiment: Test A pre-emergence, corn
# Protocol: as §1, §2
# [8] = test system: barnyardgrass (Echinochloa crus-galli, ECHCG); experiment: Test A pre-emergence, barnyardgrass
# Protocol: as §1, §2
# corn (Zea mays, ZEAMX) [9] = experiment: Test A post-emergence, corn
# Protocol: as §1, with “IPOHE)),” for “IPOHE),”, “8 d” for “one day”
# as §3
# [10] = test system: velvetleaf (Abutilon theophrasti, ABUTH); experiment: Test A post-emergence, velvetleaf
# Protocol: as §1, with “IPOHE)),” for “IPOHE),”, “8 d” for “one day”
# as §3
# [11] = test system: barnyardgrass (Echinochloa crus-galli, ECHCG); experiment: Test A post-emergence, barnyardgrass
# Protocol: as §1, with “IPOHE)),” for “IPOHE),”, “8 d” for “one day”
# as §3
# [12] = test system: giant foxtail (Setaria faberi, SETFA); experiment: Test A pre-emergence, giant foxtail
# Protocol: as §1, §2
smiles,measurement,setting,value
CN1CC(c2nn(C)c(Cl)c2Br)C(C(=O)Nc2ccc(F)c(F)c2F)C1=O (racemic) [Compound 32],damage to plant (100=total damage; 0=no damage) AMARE,[1]; Pre-Emergence at 15.625 g/ha,0
same,damage to plant (100=total damage; 0=no damage) AMARE,[1]; Pre-Emergence at 62.5 g/ha,0
same,damage to plant (100=total damage; 0=no damage) AMARE,[1]; Pre-Emergence at 250 g/ha,0
same,damage to plant (100=total damage; 0=no damage) IPOHE,[2]; Pre-Emergence at 15.625 g/ha,0
same,damage to plant (100=total damage; 0=no damage) IPOHE,[2]; Pre-Emergence at 62.5 g/ha,0
same,damage to plant (100=total damage; 0=no damage) IPOHE,[2]; Pre-Emergence at 250 g/ha,10
same,damage to plant (100=total damage; 0=no damage) IPOHE,[3]; Post-Emergence at 15.625 g/ha,0
same,damage to plant (100=total damage; 0=no damage) IPOHE,[3]; Post-Emergence at 62.5 g/ha,0
same,damage to plant (100=total damage; 0=no damage) IPOHE,[3]; Post-Emergence at 250 g/ha,10
same,damage to plant (100=total damage; 0=no damage) AMARE,[4]; Post-Emergence at 15.625 g/ha,0
same,damage to plant (100=total damage; 0=no damage) AMARE,[4]; Post-Emergence at 62.5 g/ha,0
same,damage to plant (100=total damage; 0=no damage) AMARE,[4]; Post-Emergence at 250 g/ha,0
same,damage to plant (100=total damage; 0=no damage) ABUTH,[5]; Pre-Emergence at 15.625 g/ha,0
same,damage to plant (100=total damage; 0=no damage) ABUTH,[5]; Pre-Emergence at 62.5 g/ha,0
same,damage to plant (100=total damage; 0=no damage) ABUTH,[5]; Pre-Emergence at 250 g/ha,0
same,damage to plant (100=total damage; 0=no damage) SETFA,[6]; Post-Emergence at 15.625 g/ha,20
same,damage to plant (100=total damage; 0=no damage) SETFA,[6]; Post-Emergence at 62.5 g/ha,60
same,damage to plant (100=total damage; 0=no damage) SETFA,[6]; Post-Emergence at 250 g/ha,80
same,damage to plant (100=total damage; 0=no damage) ZEAMX,"corn (Zea mays, ZEAMX) [7]; Pre-Emergence at 15.625 g/ha",0
same,damage to plant (100=total damage; 0=no damage) ZEAMX,"corn (Zea mays, ZEAMX) [7]; Pre-Emergence at 62.5 g/ha",10
same,damage to plant (100=total damage; 0=no damage) ZEAMX,"corn (Zea mays, ZEAMX) [7]; Pre-Emergence at 250 g/ha",10
same,damage to plant (100=total damage; 0=no damage) ECHCG,[8]; Pre-Emergence at 15.625 g/ha,30
same,damage to plant (100=total damage; 0=no damage) ECHCG,[8]; Pre-Emergence at 62.5 g/ha,50
same,damage to plant (100=total damage; 0=no damage) ECHCG,[8]; Pre-Emergence at 250 g/ha,70
same,damage to plant (100=total damage; 0=no damage) ZEAMX,"corn (Zea mays, ZEAMX) [9]; Post-Emergence at 15.625 g/ha",0
same,damage to plant (100=total damage; 0=no damage) ZEAMX,"corn (Zea mays, ZEAMX) [9]; Post-Emergence at 62.5 g/ha",0
same,damage to plant (100=total damage; 0=no damage) ZEAMX,"corn (Zea mays, ZEAMX) [9]; Post-Emergence at 250 g/ha",10
same,damage to plant (100=total damage; 0=no damage) ABUTH,[10]; Post-Emergence at 15.625 g/ha,0
same,damage to plant (100=total damage; 0=no damage) ABUTH,[10]; Post-Emergence at 62.5 g/ha,0
same,damage to plant (100=total damage; 0=no damage) ABUTH,[10]; Post-Emergence at 250 g/ha,0
same,damage to plant (100=total damage; 0=no damage) ECHCG,[11]; Post-Emergence at 15.625 g/ha,10
same,damage to plant (100=total damage; 0=no damage) ECHCG,[11]; Post-Emergence at 62.5 g/ha,40
same,damage to plant (100=total damage; 0=no damage) ECHCG,[11]; Post-Emergence at 250 g/ha,80
same,damage to plant (100=total damage; 0=no damage) SETFA,[12]; Pre-Emergence at 15.625 g/ha,20
same,damage to plant (100=total damage; 0=no damage) SETFA,[12]; Pre-Emergence at 62.5 g/ha,60
same,damage to plant (100=total damage; 0=no damage) SETFA,[12]; Pre-Emergence at 250 g/ha,90
